Source: patent US20250092084A1, “C7, C12, AND C16 SUBSTITUTED NEUROACTIVE STEROIDS AND THEIR METHODS OF USE” (Sage Therapeutics, Inc., priority 2016, published 2025)

The molecules below were run against rat brain cortical membranes (GABA receptor complex, [35S]-TBPS binding) (assay: Steroid inhibition of [35S]-TBPS binding). Conditions: 3 nM [35S]-TBPS, in the presence of 5 mM GABA.
Description: [^35S]-t-Butylbicyclophosphorothionate (TBPS) binding assays using rat brain cortical membranes in the presence of 5 mM GABA has been described (Gee et al, J Pharmacol. Exp. Ther. 1987, 241, 346-353; Hawkinson et al, Mol. Pharmacol. 1994, 46, 977-985; Lewin, A. H et al., Mol. Pharmacol. 1989, 35, 189-194).
Briefly, cortices are rapidly removed following decapitation of carbon dioxide-anesthetized Sprague-Dawley rats (200-250 g). The cortices are homogenized in 10 volumes of ice-cold 0.32 M sucrose using a glass/teflon homogenizer and centrifuged at 1500×g for 10 min at 4° C. The resultant supernatants are centrifuged at 10,000×g for 20 min at 4° C. to obtain the P2 pellets. The P2 pellets are resuspended in 200 mM NaCl/50 mM Na—K phosphate pH 7.4 buffer and centrifuged at 10,000×g for 10 min at 4° C. This washing procedure is repeated twice and the pellets are resuspended in 10 volumes of buffer. Aliquots ([…]) of the membrane suspensions are incubated with 3 nM [^35S]-TBPS and […] aliquots of test drug dissolved in dimethyl sulfoxide (DMSO) (final 0.5%) in the presence of 5 mM GABA. The incubation is brought to a final volume of 1.0 mL with buffer. Nonspecific binding is determined in the presence of […] and ranged from 15 to 25%. Following a 90 min incubation at room temp, the assays are terminated by filtration through glass fiber filters (Schleicher and Schuell No. 32) using a cell harvester (Brandel) and rinsed three times with ice-cold buffer. Filter bound radioactivity is measured by liquid scintillation spectrometry. Non-linear curve fitting of the overall data for each drug averaged for each concentration is done using Prism (GraphPad). […] The concentration of test compound producing 50% inhibition (IC50) of specific binding and the maximal extent of inhibition (Imax) are determined for the individual experiments with the same model used for the overall data and then the means±SEMs of the individual experiments are calculated.
Various compounds are or can be screened to determine their potential as modulators of [^35S]-TBPS binding in vitro. These assays are or can be performed in accordance with the above discussed procedures.
`CO[C@@H]1C[C@H]2[C@@H](CC[C@H]3C[C@](C)(O)CC[C@@]32C)[C@@H]2CC[C@H](C(=O)Cn3cc(C#N)cn3)[C@@]12C` [Compound 44] was tested, and the IC50 was 10 to 50 nM.
With `C[C@@]1(O)CC[C@@]2(C)[C@@H](C[C@@H](O)[C@@H]3[C@@H]2CC[C@]2(C)[C@@H](C(=O)Cn4cc5ccncc5n4)CC[C@@H]32)C1` [Compound 27] the IC50 was ≥ 500 nM.
With `CC(=O)[C@H]1CC[C@H]2[C@@H]3[C@H](O)C[C@H]4C[C@](C)(O)CC[C@]4(C)[C@H]3CC[C@]12C` [Compound 25] the IC50 was ≥ 500 nM.
In the case of `C[C@@]1(O)CC[C@@]2(C)[C@@H](CC[C@@H]3[C@@H]2C[C@@H](O)[C@]2(C)[C@@H](C(=O)Cn4ncc5ccncc54)CC[C@@H]32)C1` [Compound 50], the IC50 is reported as ≥ 500 nM.
With `COC[C@H]1C[C@H]2C[C@](C)(O)CC[C@]2(C)[C@H]2CC[C@]3(C)[C@@H](C(=O)Cn4nc5ccc(OC)cc5n4)CC[C@H]3[C@H]12` [Compound 15] the IC50 was ≥ 500 nM.
With `C[C@@H]1C[C@H]2C[C@](C)(O)CC[C@]2(C)[C@H]2CC[C@]3(C)[C@@H](C#N)CC[C@H]3[C@H]12` [Compound 1] the IC50 was ≥ 500 nM.
For `CO[C@@H]1C[C@H]2[C@@H](CC[C@H]3C[C@](C)(O)CC[C@@]32C)[C@@H]2CC[C@H](C(=O)Cn3nnnc3C)[C@@]12C` [Compound 61], the IC50 was 100 to 500 nM.
For `CO[C@H]1C[C@H]2[C@@H](CC[C@H]3C[C@](C)(O)CC[C@@]32C)[C@@H]2CC[C@H](C(=O)Cn3cc(C#N)cn3)[C@@]12C` [Compound 53], the IC50 was ≥ 500 nM.
With `C[C@@]1(O)CC[C@@]2(C)[C@@H](C[C@@H](O)[C@@H]3[C@@H]2CC[C@]2(C)[C@@H](C(=O)Cn4ncc5ccncc54)CC[C@@H]32)C1` [Compound 28] the IC50 was ≥ 500 nM.
Molecule `COc1ccc2c(c1)nnn2CC(=O)[C@H]1[C@H](C)C[C@H]2[C@@H]3CC[C@H]4C[C@](C)(O)CC[C@]4(C)[C@H]3CC[C@@]21C` [Compound 69] has an IC50 of 10 to 50 nM.
In the case of `CO[C@H]1C[C@H]2[C@@H](CC[C@H]3C[C@](C)(O)CC[C@@]32C)[C@@H]2CC[C@H](C(C)=O)[C@@]12C` [Compound 52], the IC50 is reported as ≥ 500 nM.
With `C[C@H]1C[C@H]2C[C@](C)(O)CC[C@]2(C)[C@H]2CC[C@]3(C)[C@@H](C#N)CC[C@H]3[C@H]12` [Compound 2] the IC50 was ≥ 500 nM.
In the case of `COC[C@@H]1C[C@H]2C[C@](C)(O)CC[C@]2(C)[C@H]2CC[C@]3(C)[C@@H](C(=O)Cn4cc(C#N)cn4)CC[C@H]3[C@H]12` [Compound 14], the IC50 is reported as ≥ 500 nM.
In the case of `CC(=O)[C@H]1CC[C@H]2[C@@H]3[C@H](C)C[C@H]4C[C@](C)(O)CC[C@]4(C)[C@H]3CC[C@]12C` [Compound 5], the IC50 is reported as ≥ 500 nM.
`CO[C@H]1CC[C@H]2[C@@H]3[C@@H](C)C[C@H]4C[C@](C)(O)CC[C@]4(C)[C@H]3CC[C@]12C` [Compound 4] was tested, and the IC50 was ≥ 500 nM.
`COC[C@H]1C[C@H]2C[C@](C)(O)CC[C@]2(C)[C@H]2CC[C@]3(C)[C@@H](C(=O)Cn4cc5ccncc5n4)CC[C@H]3[C@H]12` [Compound 21] was tested, and the IC50 was ≥ 500 nM.
For `COC[C@@H]1C[C@H]2C[C@](C)(O)CC[C@]2(C)[C@H]2CC[C@]3(C)[C@@H](C(=O)Cn4cc5ccncc5n4)CC[C@H]3[C@H]12` [Compound 24], the IC50 was ≥ 500 nM.
`C[C@@H]1C[C@H]2C[C@](C)(O)CC[C@]2(C)[C@H]2CC[C@]3(C)[C@@H](C(=O)Cn4cc5ccncc5n4)CC[C@H]3[C@H]12` [Compound 8] was tested, and the IC50 was ≥ 500 nM.
With `COC[C@@H]1C[C@H]2C[C@](C)(O)CC[C@]2(C)[C@H]2CC[C@]3(C)[C@@H](C(=O)Cn4nnc5cc(OC)ccc54)CC[C@H]3[C@H]12` [Compound 20] the IC50 was ≥ 500 nM.
For `CO[C@@H]1C[C@H]2C[C@](C)(O)CC[C@]2(C)[C@H]2CC[C@]3(C)[C@@H](C(C)=O)CC[C@H]3[C@H]12` [Compound 29], the IC50 was ≥ 500 nM.
With `CO[C@H]1C[C@H]2[C@@H](CC[C@H]3C[C@](C)(O)CC[C@@]32C)[C@@H]2CC[C@H](C(=O)Cn3cc4ccncc4n3)[C@@]12C` [Compound 54] the IC50 was ≥ 500 nM.
`C[C@H]1C[C@H]2C[C@](C)(O)CC[C@]2(C)[C@H]2CC[C@]3(C)[C@@H](C(=O)Cn4ncc5ccncc54)CC[C@H]3[C@H]12` [Compound 9] gave an IC50 of 100 to 500 nM.
`COC[C@H]1C[C@H]2C[C@](C)(O)CC[C@]2(C)[C@H]2CC[C@]3(C)[C@@H](C(=O)Cn4nnc5ccc(OC)cc54)CC[C@H]3[C@H]12` [Compound 16] was tested, and the IC50 was ≥ 500 nM.
`C[C@H]1C[C@H]2C[C@](C)(O)CC[C@]2(C)[C@H]2CC[C@]3(C)[C@@H](C(=O)Cn4cc5ccncc5n4)CC[C@H]3[C@H]12` [Compound 7] was tested, and the IC50 was ≥ 500 nM.
For `C[C@@]1(O)CC[C@@]2(C)[C@@H](CC[C@@H]3[C@@H]2CC(=O)[C@]2(C)[C@@H](C(=O)Cn4cc(C#N)cn4)CC[C@@H]32)C1` [Compound 48], the IC50 was ≥ 500 nM.
For `COC[C@@H]1C[C@H]2C[C@](C)(O)CC[C@]2(C)[C@H]2CC[C@]3(C)[C@@H](C(C)=O)CC[C@H]3[C@H]12` [Compound 12], the IC50 was ≥ 500 nM.
`C[C@@H]1C[C@H]2C[C@](C)(O)CC[C@]2(C)[C@H]2CC[C@]3(C)[C@@H](C(=O)Cn4cc(C#N)cn4)CC[C@H]3[C@H]12` [Compound 38] gave an IC50 of 100 to 500 nM.
With `CO[C@H]1C[C@H]2C[C@](C)(O)CC[C@]2(C)[C@H]2CC[C@]3(C)[C@@H](C(=O)Cn4cc(C#N)cn4)CC[C@H]3[C@H]12` [Compound 31] the IC50 was ≥ 500 nM.
`C[C@@]1(O)CC[C@@]2(C)[C@@H](CC[C@@H]3[C@@H]2C[C@@H](O)[C@]2(C)[C@@H](C(=O)Cn4cc5ccncc5n4)CC[C@@H]32)C1` [Compound 49] showed an IC50 of 100 to 500 nM.
`CC(=O)[C@H]1CC[C@H]2[C@@H]3CC[C@H]4C[C@](C)(O)CC[C@]4(C)[C@H]3CC(=O)[C@]12C` [Compound 46] was tested, and the IC50 was ≥ 500 nM.
`CC[C@@H]1C[C@H]2[C@@H]3CC[C@H]4C[C@](C)(O)CC[C@]4(C)[C@H]3CC[C@]2(C)[C@H]1C(=O)Cn1nnc2ccc(OC)cc21` [Compound 71] was tested, and the IC50 was ≥ 500 nM.
`COC[C@H]1C[C@H]2C[C@](C)(O)CC[C@]2(C)[C@H]2CC[C@]3(C)[C@@H](C(=O)Cn4nnc5cc(OC)ccc54)CC[C@H]3[C@H]12` [Compound 17] was tested, and the IC50 was ≥ 500 nM.
With `CC(C)[C@@H]1C[C@H]2[C@@H]3CC[C@H]4C[C@](C)(O)CC[C@]4(C)[C@H]3CC[C@]2(C)[C@H]1C(=O)Cn1ncc2ccncc21` [Compound 75] the IC50 was ≥ 500 nM.
Work on `Cc1nnn(CC(=O)[C@H]2[C@H](C)C[C@H]3[C@@H]4CC[C@H]5C[C@](C)(O)CC[C@]5(C)[C@H]4CC[C@@]32C)n1` [Compound 89] yielded an IC50 of 10 to 50 nM.
In the case of `Cc1nnnn1CC(=O)[C@H]1[C@H](C)C[C@H]2[C@@H]3CC[C@H]4C[C@](C)(O)CC[C@]4(C)[C@H]3CC[C@@]21C` [Compound 90], the IC50 is reported as 100 to 500 nM.
`CO[C@@H]1C[C@H]2[C@@H](CC[C@H]3C[C@](C)(O)CC[C@@]32C)[C@@H]2CC[C@H](C(=O)Cn3cc4ccncc4n3)[C@@]12C` [Compound 62] was tested, and the IC50 was 10 to 50 nM.
In the case of `CC(=O)[C@H]1[C@H](C(C)C)C[C@H]2[C@@H]3CC[C@H]4C[C@](C)(O)CC[C@]4(C)[C@H]3CC[C@@]21C` [Compound 73], the IC50 is reported as ≥ 500 nM.
`CC(C)[C@@H]1C[C@H]2[C@@H]3CC[C@H]4C[C@](C)(O)CC[C@]4(C)[C@H]3CC[C@]2(C)[C@H]1C(=O)Cn1cc(C#N)cn1` [Compound 88] was tested, and the IC50 was ≥ 500 nM.
`C[C@H]1C[C@H]2C[C@](C)(O)CC[C@]2(C)[C@H]2CC[C@]3(C)[C@@H](C(=O)Cn4cc(C#N)cn4)CC[C@H]3[C@H]12` [Compound 39] showed an IC50 of 100 to 500 nM.
In the case of `CC[C@@H]1C[C@H]2[C@@H]3CC[C@H]4C[C@](C)(O)CC[C@]4(C)[C@H]3CC[C@]2(C)[C@H]1C(=O)Cn1nc2ccc(OC)cc2n1` [Compound 70], the IC50 is reported as ≥ 500 nM.
For `COC[C@H]1C[C@H]2C[C@](C)(O)CC[C@]2(C)[C@H]2CC[C@]3(C)[C@@H](C(C)=O)CC[C@H]3[C@H]12` [Compound 11], the IC50 was ≥ 500 nM.
